Values after ≈ are worked out from the molar mass of the structure shown.
Assays:
Bacillus sp. 633 = assay: Inhibition zone, agar plate; assay type: cell-based; details: 15λ, read-out: Inhibition Zone Diameter
Procedure: (§1) A crystalline sample of L-654,040 was dissolved in distilled water. Aliquots of 15λ were deposited on the surface of each seeded nutrient agar susceptibility test plate, followed by overnight incubation Plates were then measured for activity by determining the inhibition zone diameter under the previously placed 15λ aliquot.

Candida albicans 992 = assay: Inhibition zone, agar plate; assay type: cell-based; details: 15λ, read-out: Inhibition Zone Diameter
Procedure: as §1

[1] = system: Pseudomonas aeruginosa 979; assay: Inhibition zone, agar plate; assay type: cell-based; details: 15λ, read-out: Inhibition Zone Diameter
[2] = system: Bacillus subtilis 964 (6633); assay: Inhibition zone, agar plate; assay type: cell-based; details: 15λ, read-out: Inhibition Zone Diameter
[3] = system: Brucella bronchiseptica 965; assay: microbe, parasite or virus in culture; assay type: cell-based; details: Bordetella bronchiseptica, 965, read-out: Inhibition Zone Diameter
[4] = system: Xanthomonas vesicatoria 815; assay: Inhibition zone, agar plate; assay type: cell-based; details: 15λ, read-out: Inhibition Zone Diameter
Escherichia coli 1418 = assay: Inhibition zone, agar plate; assay type: cell-based; details: 15λ, read-out: Inhibition Zone Diameter
[5] = system: Pseudomonas aeruginosa 2824; assay: Inhibition zone, agar plate; assay type: cell-based; details: 15λ, read-out: Inhibition Zone Diameter
Proteus mirabilis 3126 = assay: Inhibition zone, agar plate; assay type: cell-based
Aspergillus niger 442 = assay: Inhibition zone, agar plate; assay type: cell-based; details: 15λ, read-out: Inhibition Zone Diameter
[6] = system: Actinomyces naeslundii 4053; assay: Anaerobic agar dilution, Wilkens-Chalgren agar; assay type: cell-based; details: Actinomyces naeslundii, 4053, 48 h
[7] = system: Propionibacterium acnes 2249; assay: Anaerobic agar dilution, Wilkens-Chalgren agar; assay type: cell-based; details: Cutibacterium acnes, 2249, 48 h
C. perfringens 2237 = assay: microbe, parasite or virus in culture; assay type: cell-based; details: Clostridium perfringens, 2237, 48 h
C. perfringens 3508 = assay: microbe, parasite or virus in culture; assay type: cell-based; details: Clostridium perfringens, 3508, 48 h
C. perfringens 3511 = assay: microbe, parasite or virus in culture; assay type: cell-based; details: Clostridium perfringens, 3511, 48 h
C. perfringens 3512 = assay: microbe, parasite or virus in culture; assay type: cell-based; details: Clostridium perfringens, 3512, 48 h
C. perfringens 3513 = assay: microbe, parasite or virus in culture; assay type: cell-based; details: Clostridium perfringens, 3513, 48 h
C. ramosum 4272 = assay: Anaerobic agar dilution, Wilkens-Chalgren agar; assay type: cell-based; details: Thomasclavelia ramosa, 4272, 48 h
[8] = system: C. difficile Clind^r 4273; assay: Anaerobic agar dilution, Wilkens-Chalgren agar; assay type: cell-based; details: Clostridioides difficile, 48 h
[9] = system: Bacteroides fragilis Met^r . Pen^r 4324; assay: Anaerobic agar dilution, Wilkens-Chalgren agar; assay type: cell-based; details: 48 h
[10] = system: B. fragilis NCCLS control strain 4419; assay: Anaerobic agar dilution, Wilkens-Chalgren agar; assay type: cell-based; details: Bacteroides fragilis, 48 h
[11] = system: B. thetalotamicron Clind^r 4362; assay: Anaerobic agar dilution, Wilkens-Chalgren agar; assay type: cell-based; details: 48 h
[12] = system: B. thetalotamicron Clind^r, NCCLS control strain 4420; assay: Anaerobic agar dilution, Wilkens-Chalgren agar; assay type: cell-based; details: 48 h
[13] = system: Fusobacterium mortiferum Fox^r 3345; assay: Anaerobic agar dilution, Wilkens-Chalgren agar; assay type: cell-based; details: 48 h
[14] = system: Veillonella alcalescens 1952; assay: Anaerobic agar dilution, Wilkens-Chalgren agar; assay type: cell-based; details: Veillonella parvula, 1952, 48 h
E. coli 2891 [15] = assay: Agar dilution, trypticase soy agar; details: Escherichia coli, 2891, 20 h
Ent. cloacae P99+ 2646 = assay: Agar dilution, trypticase soy agar; details: Enterobacter cloacae, 20 h
K. pneumoniae K1+ 4354 = assay: Agar dilution, trypticase soy agar; details: Klebsiella pneumoniae, 20 h
K. pneumoniae 4005 = assay: Agar dilution, trypticase soy agar; details: Klebsiella pneumoniae, 4005, 20 h
Prot. morganii Sm^r 2833 = assay: Agar dilution, trypticase soy agar; details: Morganella morganii, 20 h
[16] = system: Ps. aeruginosa RPL11+ 3350; assay: Agar dilution, trypticase soy agar; details: Pseudomonas aeruginosa, 20 h
Ser. marcescens 2840 = assay: Agar dilution, trypticase soy agar; details: Serratia marcescens, 2840, 20 h
Staph. aureus 2865 = assay: Agar dilution, antagonist-free medium
E. coli DC2 4353 = assay: Agar dilution, antagonist-free medium
E. coli 2891 [17] = assay: Agar dilution, antagonist-free medium; details: Escherichia coli, 2891, 20 h
Ent. cloacae P99- 2647 = assay: Agar dilution, antagonist-free medium; details: Enterobacter cloacae, P992647, 20 h
Ps. aeruginosa 4279 = assay: Agar dilution, antagonist-free medium; details: Pseudomonas aeruginosa, 4279, 20 h

## C[C@H](CNC(=O)[C@H]1N=C(c2cccc(O)c2O)O[C@@H]1C)C(=O)N[C@@H]1CCCN(O)C1=O [L-654,040, 2-(2,3-dihydroxyphenyl)-4,5-dihydro-N-[3-[(1-hydroxy-2-oxo-3(R)-piperidinyl)-amino]-2(R)-methyl-3-oxopropyl]-5R-methyl-4S-oxazolecarboxamide]
Bacillus sp. 633; 0.5 mg/ml in distilled H2O
  zone of inhibition at 500 µg/mL: 23 mm
Bacillus sp. 633; 2 mg/ml in distilled H2O
  zone of inhibition at 2000 µg/mL: 28 mm
Candida albicans 992; 0.5 mg/ml in distilled H2O
  zone of inhibition at 500 µg/mL: 16 mm
Candida albicans 992; 2 mg/ml in distilled H2O
  zone of inhibition at 2000 µg/mL: 24 mm
[1]; 0.5 mg/ml in distilled H2O
  zone of inhibition at 500 µg/mL: 0 mm
[1]; 2 mg/ml in distilled H2O
  zone of inhibition at 2000 µg/mL: 0 mm
[2]; 0.5 mg/ml in distilled H2O
  zone of inhibition at 500 µg/mL: 12 mm
[2]; 2 mg/ml in distilled H2O
  zone of inhibition at 2000 µg/mL: 14 mm
[3]
  zone of inhibition at 500 µg/mL: 16 mm
  zone of inhibition at 2000 µg/mL: 24 mm
[4]; 0.5 mg/ml in distilled H2O
  zone of inhibition at 500 µg/mL: 0 mm
[4]; 2 mg/ml in distilled H2O
  zone of inhibition at 2000 µg/mL: 0 mm
Escherichia coli 1418; 0.5 mg/ml in distilled H2O
  zone of inhibition at 500 µg/mL: 0 mm
Escherichia coli 1418; 2 mg/ml in distilled H2O
  zone of inhibition at 2000 µg/mL: 13 mm
[5]; 0.5 mg/ml in distilled H2O
  zone of inhibition at 500 µg/mL: 0 mm
[5]; 2 mg/ml in distilled H2O
  zone of inhibition at 2000 µg/mL: 0 mm
Proteus mirabilis 3126; Proteus mirabilis, 3126, read-out: Inhibition Zone Diameter
  zone of inhibition at 500 µg/mL: 24 mm
Proteus mirabilis 3126; Proteus mirabilis, 3126, 2 mg/ml in distilled H2O, 15λ, read-out: Inhibition Zone Diameter
  zone of inhibition at 2000 µg/mL: 25 mm
Aspergillus niger 442; 0.5 mg/ml in distilled H2O
  zone of inhibition at 500 µg/mL: 0 mm
Aspergillus niger 442; 2 mg/ml in distilled H2O
  zone of inhibition at 2000 µg/mL: 0 mm
[6]
  MIC: 128 µg/mL (≈ 295 µM)
[7]
  MIC: 128 µg/mL (≈ 295 µM)
C. perfringens 2237
  MIC: 128 µg/mL (≈ 295 µM)
C. perfringens 3508
  MIC: 64 µg/mL (≈ 147 µM)
C. perfringens 3511
  MIC: 64 µg/mL (≈ 147 µM)
C. perfringens 3512
  MIC: 64 µg/mL (≈ 147 µM)
C. perfringens 3513
  MIC: 128 µg/mL (≈ 295 µM)
C. ramosum 4272
  MIC: 64 µg/mL (≈ 147 µM)
[8]
  MIC: 128 µg/mL (≈ 295 µM)
[9]
  MIC: 128 µg/mL (≈ 295 µM)
[10]
  MIC: > 128 µg/mL
[11]
  MIC: > 128 µg/mL
[12]
  MIC: > 128 µg/mL
[13]
  MIC: > 128 µg/mL
[14]
  MIC: > 128 µg/mL
Solubility in water; boiling water
  solubility: ~10000 µg/mL (≈ 23000 µM)
Solubility in water; water, for dosing solutions
  solubility in water: limited solubility
E. coli 2891 [15]
  MIC: > 128 µg/mL
Ent. cloacae P99+ 2646
  MIC: > 128 µg/mL
K. pneumoniae K1+ 4354
  MIC: > 128 µg/mL
K. pneumoniae 4005
  MIC: > 128 µg/mL
Prot. morganii Sm^r 2833
  MIC: > 128 µg/mL
[16]
  MIC: > 128 µg/mL
Ser. marcescens 2840
  MIC: > 128 µg/mL
Staph. aureus 2865; Staphylococcus aureus 2865
  sensitivity of strain: sensitive
Staph. aureus 2865; Staphylococcus aureus, 2865, 20 h
  MIC: 32 µg/mL (≈ 73.7 µM)
E. coli DC2 4353; E. coli permeability mutant
  relative activity of parent and acetyl derivative: equal activity
  sensitivity of strain: sensitive
E. coli DC2 4353; Escherichia coli, DC24353, 20 h
  MIC: 32 µg/mL (≈ 73.7 µM)
E. coli 2891 [17]
  MIC: > 256 µg/mL
Ent. cloacae P99- 2647
  MIC: > 256 µg/mL
Ps. aeruginosa 4279
  MIC: > 256 µg/mL

Reference: patent publication US4956294A, “Culture of Streptoverticillium synroense for producing an antibacterial” (Merck & Co., Inc., priority 1989, dated 1990)
